Each block holds one compound with its values, some of them ahead of it.
How the values were obtained:
Format in all cases: physicochemical
[1] = Stability of compound 1 stored at 40° C. for 4 weeks in various solvents and containers, content by HPLC
Protocol: (§1) Based on the value expressed in the table 1, an amount of the solution corresponding to 36 μg of the compound 1 or 2 was weighted precisely. Precisely 1.0 ml of an internal standard solution was added, and then ethyl acetate (liquid chromatograph grade) was added to give the total amount of 10 ml each. Each 0.1 ml of the solution was vacuum concentrated to dryness to give the test preparation.
(§2) Each 18 mg of the respective standard compounds was weighted precisely and admixed with ethyl acetate (liquid chromatograph grade) to give the total amount of exactly 50 ml each. One (1.0) ml of the solution and 10.0 ml of the internal standard solution were measured precisely and admixed with ethyl acetate (liquid chromatograph grade) to give the total amount of 100 ml each. Each 0.1 ml of the solution was vacuum concentrated to dryness to give the standard preparation.
(§3) To the test and standard preparations, 0.1 ml of fluorescent labeling reagent and 0.85 ml of fluorescent labeling catalyst were added respectively, and the mixture was stirred and reacted at room temperature more than 30 minutes. 0.05 ml aliquots of acetonitrile (liquid chromatograph grade) containing 2% acetic acid were added to the reaction mixtures respectively, stirred and then stand for more than 30 minutes to provide test and standard solutions.
(§4) Each 10 μl of the test and standard solutions was loaded on liquid chromatograph and determined the content of the respective compounds by internal standard method with one point calibration curve.
(§5) [formula] WS: The amount of the compound in the standard preparation (mg) QS: Peak area ratio of the compound in the standard preparation to the internal standard QT: Peak area ratio of the compound in the test preparation to the internal standard. Measurement Condition Detector: fluorescent spectrometer (excitation wavelength 259 nm, fluorescent wavelength 394 nm) Column: A stainless tube having about 5 mm of internal diameter and about 25 cm of length, packed with 5 μm octadecylsilyl silica gel for liquid chromatograph Column temperature: Stable at around 35° C. Mobile phase: Mixed solution of acetonitrile (liquid chromatograph grade)/methanol (liquid chromatograph grade)/aqueous ammonium acetate (0.05 mol/l) (4:11:5) The results are shown in Table 1 below.
Each of the solutions was placed in a container made of low-density polyethylene (LDPE), hard glass or stainless steel and stored at 40° C. The content of the compound 1 in the solutions after four weeks were determined by HPLC method according to the above described (2) of Example 1 except for using composition shown in table 2 below.

[2] = Stability of the compounds dissolved in medium chain fatty acid triglyceride (MCT) stored at 40° C., content by HPLC; conditions: for stability on admixing with the glyceride (conclusion from Table 1): MCT versus crystal; for content of the compound stored at 40° C., 14 days / content of the compound stored at 40° C., initial: in MCT (compound 1: 0.36 mg/g; compound 2: 0.12 mg/g)
Protocol: (§6) The above-described compounds 1 and 2 were dissolved in the medium chain fatty acid triglyceride (MCT)^31 at the amount shown in the table 1 below respectively. Each of the solutions was placed in a container made of hard glass and stored at 40° C. The time-course of the content of the compound 1 and 2 in the solutions were determined by HPLC method. The medium chain fatty acid triglyceride used herein was a mixture of caprylic acid triglyceride and capric acid triglyceride (85:15). At the same time, each of the compounds 1 and 2 was placed solely (without being dissolved in the solvent) in the container as above and stored at 40° C. to provide control study.
as §1, §2, §3, §4, §5

[3] = Stability of the compounds stored solely (crystal, without solvent) at 40° C., content by HPLC; conditions: crystal (no solvent), hard glass container
Protocol: as §6
(1) Under the absence of the solvent, the content of the compound was determined as follows (HPLC method).
The stored compounds 1 and 2, and standard compounds 1 and 2 were weighed precisely around 0.025 g each, and exactly 5 ml aliquots of an internal standard solution were added to the respective weighed compounds. Then the test and standard preparations were obtained by adding acetonitrile (liquid chromatograph grade) to give the precise total amount of 10 ml each. Each 10 μl of the test and standard preparations was loaded on liquid chromatograph and determined the content of the compound by internal standard method with one point calibration curve.
[formula] Ws: The amount of the compound in the standard preparation (mg) WT: The amount of the compound 1 or 2 in the test preparation QS: Peak area ratio of the compound in the standard preparation to the internal standard. QT: Peak area ratio of the compound in the test preparation to the internal standard. Measurement Conditions Detector: Ultraviolet absorption spectrophotometer (wavelength: 294 nm) Column: A stainless tube having about 5 mm of internal diameter and about 25 cm of length, packed with 5 μm octadecylsilyl silica gel for liquid chromatograph Column temperature: Stable at around 35° C. Mobile phase: Mixed solution of acetonitrile (liquid chromatograph grade)/aqueous sodium acetate (0.01 mol/l)/glacial acetic acid (800:200:1) (2) Under the presence of the solvent, the content of the compound was determined as follows (HPLC method).

[4] = Stability of compound 1 stored at 40° C. for 4 weeks in various ratio of MCT to Mineral oil, content by HPLC
Protocol: as §1, §2, §3, §4, §5
Each of the solutions was placed in a container made of LDPE and stored at 40° C. The content of the compound in the solutions after four weeks were determined by HPLC method according to the above described (2) of Example 1 except for using composition shown in table 3 below.

% to the initial 4 weeks after ([1]; 10 μg/mL, MCT, LDPE container): 100.8%
% to the initial 4 weeks after ([1]; 10 μg/mL, Saline, Hard glass container): 18.0%
% to the initial 4 weeks after ([1]; 20 μg/mL, Caster oil, LDPE container): 102.9%
% to the initial 4 weeks after ([1]; 20 μg/mL, Corn oil, LDPE container): 99.6%
% to the initial 4 weeks after ([1]; 20 μg/mL, Diluted water, Hard glass container): 39.6%
% to the initial 4 weeks after ([1]; 20 μg/mL, MCT, Hard glass container): 99.5%
% to the initial 4 weeks after ([1]; 20 μg/mL, MCT, Stainless steel container): 99.5%
% to the initial 4 weeks after ([1]; 20 μg/mL, Olive oil, LDPE container): 99.0%
% to the initial 4 weeks after ([1]; 20 μg/mL, Sesame oil, LDPE container): 100.1%
stability on admixing with the glyceride (conclusion from Table 2) ([1]; glycerides versus water or saline): significantly improved
stability on admixing with the glyceride (conclusion from Table 1) [2]: significantly improved
content of the compound stored at 40° C., 38 days ([2]; in MCT (compound 1: 0.36 mg/g), hard glass, 38 days): 102.1%
content of the compound stored at 40° C., 90 days ([2]; in MCT (compound 1: 0.36 mg/g), hard glass, 90 days): 100.9%
content of the compound stored at 40° C., 14 days ([2]; hard glass): 101.4%
content of the compound stored at 40° C., initial ([2]; hard glass): 100%
content of the compound stored at 40° C., 7 days ([3]; 7 days): 97.2%
content of the compound stored at 40° C., 14 days [3]: 94.1%
content of the compound stored at 40° C., 28 days [3]: 87.4%
content of the compound stored at 40° C., initial [3]: 100%
% to the initial 4 weeks after ([4]; 0.5 μg/mL, MCT/MO (V/V) 1/99, LDPE): 91.0%
% to the initial 4 weeks after ([4]; 0.5 μg/mL, MCT/MO (V/V) 2/98, LDPE): 96.6%
% to the initial 4 weeks after ([4]; 0.5 μg/mL, MCT/MO (V/V) 5/95, LDPE): 98.1%
% to the initial 4 weeks after ([4]; 0.5 μg/mL, MCT/MO (V/V) 10/90, LDPE): 99.0%
% to the initial 4 weeks after ([4]; 0.7 μg/mL, MCT/MO (V/V) 0/100, LDPE): 88.3%
% to the initial 4 weeks after ([4]; 10 μg/mL, MCT/MO (V/V) 50/50, LDPE): 101.9%
stability on admixing with the mixture of glyceride and other oil solvent (conclusion from Table 3) ([4]; MCT/Mineral oil mixtures): significantly improved
SMILES: CCCCC(F)(F)[C@@]1(O)CC[C@H]2[C@@H](CC(=O)[C@@H]2CCCCCCC(=O)O)O1 [compound 1, 7-[(1R,3R,6R,7R)-3-(1,1-difluoropentyl)-3-hydroxy-2-oxabicyclo[4.3.0]nonane-8-one-7-yl]heptanoic acid]

stability on admixing with the glyceride (conclusion from Table 1) [2]: significantly improved
content of the compound stored at 40° C., 14 days ([2]; hard glass): 99.6%
content of the compound stored at 40° C., initial ([2]; hard glass): 100%
content of the compound stored at 40° C., 28 days ([2]; in MCT (compound 2: 0.12 mg/g), hard glass, 28 days): 98.9%
content of the compound stored at 40° C., 191 days ([2]; in MCT (compound 2: 0.12 mg/g), hard glass, 191 days): 99.6%
content of the compound stored at 40° C., 6 days ([3]; 6 days): 84.5%
content of the compound stored at 40° C., 14 days [3]: 75.0%
content of the compound stored at 40° C., 28 days [3]: 53.4%
content of the compound stored at 40° C., initial [3]: 100%
SMILES: CC[C@H](C)CC(F)(F)[C@@]1(O)CC[C@H]2[C@@H](CC(=O)[C@@H]2CCCCCCC(=O)O)O1 [compound 2, 7-[(1R,6R,7R)-3-[(3S)-1,1-difluoro-3-methylpentyl]-3-hydroxy-2-oxabicyclo[4.3.0]nonane-8-one-7-yl]heptanoic acid]
